Consider one compound from patent publication US11524950B2, “Treatment of immune-related and inflammatory diseases” (Celgene Corporation, priority 2012, dated 2022).

pEC50: −log10 of the molar value.

For assay [1], the system named is DBA/2 mice. Kind of assay: Bleomycin-induced dermal fibrosis mouse model (regression of established fibrosis). The note with it: 30 mg/kg, PO, QD. It counts as in vivo. As for the experimental part:
(§1) DBA/2 mice were used in this study. Eight animals were used per treatment group in the study. Mice were kept in the animal house under standard conditions with food and water ad libidum.
(§2) The compound was suspended, not dissolved, in this vehicle. The formulation was homogenized with a Teflon pestle and mortar (Potter-Elvehjem tissue grinder) using a motorized Eberbach tissue homogenizer. The daily drug stock concentration used in these studies was 3 mg/ml.
(§3) Bleomycin was obtained from the pharmacy of the University of Erlangen-Nuremberg and freshly prepared once a week. Skin fibrosis was induced in 6-week-old DBA mice by local intracutaneous injections of 100 μl of bleomycin dissolved in 0.9% NaCl, at a concentration of 0.5 mg/ml, every other day in defined areas of 1.5 cm^2 on the upper back.
To evaluate regression of fibrosis, a modified model of bleomycin induced dermal fibrosis was used. Mice were pre-challenged with bleomycin to induce a robust skin fibrosis. One group received treatment with the test compound, while challenge with bleomycin was ongoing for additional three weeks. The outcome of this group was compared to mice challenged with bleomycin for six weeks (prevention of further progression) and to mice challenged with bleomycin for three weeks followed by NaCl for additional three weeks (induction of regression). The following groups were used in the regression study: • Control group: Intradermal injection of NaCl for six weeks. Control treatment consisted of administration of the vehicle. • Untreated bleomycin group 1 (regression): Intradermal injection of bleomycin for three weeks followed by intradermal injections of NaCl for another three weeks. Treatment consisted of administration of the vehicle. […]
(§4) Dermal thickness was determined by staining with hematoxylin and eosin and activated fibroblasts by using immunohistochemistry for alpha smooth muscle actin (α-SMA). The dermal thickness, as determined by the modified Rodnan Skin Score, is currently the most common primary outcome in human clinical trials for anti-fibrotic agents in SSc. […] Dermal thickness was analyzed with a Nikon Eclipse 80i microscope (Nikon, Badhoevedorp, The Netherlands) by measuring the maximal distance between the epidermal-dermal junction and the dermal-subcutaneous fat junction at 4 different skin sections in each mouse. […]
(§5) For quantification of myofibroblasts, skin sections were deparaffinized and incubated with 5% bovine serum albumin for 60 minutes. Cells positive for α-SMA were detected by incubation with monoclonal anti-α-SMA antibodies (clone 1A4; Sigma-Aldrich, Steinheim, Germany) for 2 hours at room temperature followed by incubation with 3% hydrogen peroxide for 10 minutes. […]

For assay [2], the system named is IL-2. The assay can be described thus: T-cell costimulation: IL-2 production (immobilized anti-CD3, ELISA). It counts as cell-based. The note with it: Homo sapiens, 48 h, immobilized anti-CD3, 2 days, read-out: EC50 for co-stimulated IL-2 production by T cells. As for the experimental part:
CRBN ubiquitination was measured in HEK293T cells, which were transfected with an amino-terminal His-biotin-tagged CRBN construct, then preincubated with compounds for one hour followed by treatment with the MG132 proteasome inhibitor (to arrest degradation of ubiquitinated proteins). Cells were lysed and processed to measure CRBN ubiquitination by SDS-PAGE and immunoblot analysis using an anti-ubiquitin antibody. Cell proliferation studies were conducted in enalidomide-sensitive and refractory multiple myeloma cells. […] T-cell costimulation was measured in purified primary human T cells stimulated using immobilized anti-CD3 antibody in cell culture for 2 days, and cytokine secretion was measured by ELISA.
(ELISA stands for enzyme-linked immunosorbent assay.)

In assay [3] the test system is DBA/2 mice. The assay can be described thus: Bleomycin-induced dermal fibrosis mouse model (prevention). It counts as in vivo. The note with it: 30 mg/kg, PO, QD. The procedure: as §1
The vehicle, 0.5% carboxymethyl cellulose (CMC)/0.25% Tween 80, was prepared in distilled H2O and dissolved overnight on a magnetic stirrer (add 0.5 g CMC; Sigma #C9481) and 0.25 ml Tween 80 (Sigma #P8074) to 99.75 ml to make a total of 100 ml 0.5% CMC/0.25% Tween 80).
as §2, §3
The mouse model of bleomycin induced dermal fibrosis is widely used to evaluate anti-fibrotic therapeutics. In this model, a localized dermal fibrosis is induced by intradermal injections with bleomycin every other day for 3 weeks. This model resembles early, inflammatory stages of SSc. To evaluate potential effects on prevention of fibrosis, treatment was initiated simultaneously with the first bleomycin injection. […] Treatment consisted of administration of the vehicle (0.5% CMC/0.25% Tween 80). • Untreated bleomycin group: Intradermal injection of bleomycin for three weeks. […] Injection of Imatinib (50 mg/kg; IP, QD). […] See Akhmetshina A. et al., Arthritis Rheum 2009; 60(1):219-224.
as §4, §5

Assay [4] concerns BCL-6, IRF-4, BLIMP-1, PAX5 and XBP-1. Kind of assay: Transcription factor protein expression by laser scanning cytometry (iCyte), normal B cells. In kind it is cell-based, human. The note with it: Day 7, 20 nM. The procedure: Preparation Of Cytospin From Single Cell Suspension And Immunofluorescence Staining for iCyte: A cell suspension of not more than 0.5×10^6 cells/ml of 2% FBS-containing PBS was prepared. Up to 200 μl of this suspension was loaded in each cuvette and spinned at 800 rpm for 3 min. The cuvette and the paper were carefully detached without damaging the fresh cytospin and proceeded with either immediate fixation or drying. Unfixed cytospins were stored for max 2 days at room temperature. Cells on slides were fixed with increasing concentrations of EtOH and allowed to dry prior to staining. After blocking non-specific binding with normal serum (species same as secondary antibody), sections were incubated with the mixture of following monoclonal antibodies in a humidified chamber at cool room for overnight: (i) anti-human CD38 as plasmablast cell marker, and (ii) anti-BCL-6, IRF-4, BLIMP-1, PAX5 and XBP-1 for transcription factor proteins. After washings, slides were incubated for 1 hr at room temperature in dark with the mixture of secondary antibodies which were raised in different species (with two different fluorochromes, i.e., Alexa Fluor-488 and Alexa Fluor-633). The slides were then rinsed in PBS, counterstained with DAPI for 20 minutes at room temperature, coverslipped with anti-fade fluorescent mounting medium, and sealed with nail polish. The slides were stored in dark at 4° C. To exclude false positives produced by nonspecific binding of the secondary antibody, all of the tissues were treated in the same manner with buffer substituting for the primary antibody. The color of the antibody staining was observed and quantity was analyzed in the tissue sections using iCyte.

Where [5] appears, read: CD38+ plasmablast/plasma cells, listed as Compound I-S.

In the case of `O=C1CC[C@H](N2Cc3c(OCc4ccc(CN5CCOCC5)cc4)cccc3C2=O)C(=O)N1` [Test compound, (S)-3-[4-(4-morphlin-4-ylmethylbenzyloxy)-1-oxo-1,3-dihydro-isoindo-2-yl]piperidine-2,6-dione], in assay [1], the dermal thickening entry is listed as “no effect” and the numbers of myofibroblasts result was “did not have an effect”. The pEC50 (in general, the EC50 on a negative log10 scale, so that one unit is a factor of ten) in assay [2] is roughly 9.54. Further, in assay [3] (3 weeks, p<0.001), the “prevention of dermal thickening” value was “approximately 25±0.49%”. Also, the “reduction of number of α-SMA+ myofibroblasts” value in assay [3] (p<0.05) is on record as 24±0.09%. For the same compound, in assay [4] (CD38+ plasmablast/plasma cells), the BCL-6 expression result is “significantly increased”, the BLIMP-1 expression result is on record as “decreased”, the IRF-4 expression entry is given as “decreased” and the PAX-5 expression result is given as “decreased”. In addition, in assay [4] (setting [5]), the BCL-6 expression result is recorded as “increased”, the BLIMP-1 expression entry was “reduced” and the IRF-4 expression entry is reported as “reduced”. The XBP-1 expression entry in assay [4] (both cell populations) is “no change”. In assay [4] (whole lymphocyte population), the BCL-6 expression result was “significantly increased”, the BLIMP-1 expression entry is “decreased” and the IRF-4 expression entry is listed as “decreased”.
